{"source": "patent US20130210034A1", "about": "“COMPLEX PHOSPHOPROTEIN ACTIVATION PROFILES” (BECKMAN COULTER, INC., priority 2005, published 2013)", "experiment_in_all_cases": "Cytokine-stimulated phosphorylation in immunophenotypically defined cell populations from healthy donor BM (flow cytometry);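 as to pAKT S/N ratio: Phosphoprotein MFI normalized to lymphocyte MFI as internal negative control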;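 as to pERK S/N ratio: Phosphoprotein MFI normalized to lymphocyte MFI as internal negative control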;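 as to pS6 S/N ratio: Phosphoprotein MFI normalized to lymphocyte MFI as internal negative control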;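 as to pSTAT3 S/N ratio: Phosphoprotein MFI normalized to lymphocyte MFI as internal negative control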", "type_in_all_cases": "cell-based, human", "key": {"[1]": {"test_system": "pAKT", "conditions": "for pAKT Percent (%) Responding Cells, Mean / pAKT S/N ratio: healthy donor BM, mean ± SD", "procedure": "(§1) Bone marrow (BM) samples were collected in 7.5 mL Iscove's modified Dulbecco's medium (IMDM) supplemented with 100U penicillin, 0.01 mg/mL streptomycin, and 70 μg/mL heparin sodium salt from 10 patients undergoing hip replacement surgery, who were otherwise healthy. These patients were from a pool of surgery patients, age 49 to 77, and represented […] patients. […] These BM samples were rinsed twice with IMDM to release cells, filtered using a 100 μm Nylon cell strainer to remove marrow particles, and centrifuged for at RT fro 7 minutes at 200 g. The cell pellet was washed twice with sterile IMDM to remove traces of fat and re-suspended in IMDM to a concentration of 3×10^7 cells/mL.\n(§2) To assess the signal transduction response after growth factor simulation, a series comprising two sets of tubes including about 3×10^6 cells/100 μL were incubated at 37° C. for 30 minutes. After this pre-incubation period, tubes with then processes with either a stimulant or inhibitor. […] To examine the effects of protein phosphorylation inhibition, tubes were incubated with an inhibitor cocktail comprising 100 μM/100 μL UO126, 1 μM/100 μL LY294002, and 1 μM/100 μL rapamycin. One unstimulated tube receiving no stimulant or inhibitor was processed to assess basal levels of phospho-protein expression. After stimulation the cells were immediately fixed in 10% formaldehyde solution at 37° C. Pre-labeling with CD13, CD16 and CD64 antibodies was carried out 20 minutes prior to formaldehyde fixation. After fixation, one set of tubes was permeabilized without methanol for pAKT, pERK and pS6 staining and the other for 80% methanol permeabilized for pSTAT3 and pSTAT5 staining. After permeablization, the cells were washed in PBS with 2% BSA and blocked by re-suspended in 75 μL of PBS comprising 25% heat inactivated normal mouse serum, 25% normal rabbit serum. To stain cells with fluorescent conjugated monoclonal antibodies, samples were incubated on ice for 45 minutes in 100 μL of an antibody staining solution including either: 1) CD15-Pacific Orange, CD34-Phycoerythrin-Texas Red, CD117-Phycoerythrin-Cyanin 5.5, CD45-Allophycocyanin-Alexa Fluor 750 (or CD45-Pacific Orange, in which case CD15-Pacific Orange was omitted), pS6-Pacific Blue, pERK-Alexa Fluor 488 and pAKT-Alexa Fluor 647 or 2) CD15-Pacific Orange, CD34-Phycoerythrin-Texas Red, CD117-Phycoerythrin-Cyanin 5.5, CD45-Allophycocyanin-Alexa Fluor 750 or CD45-Pacific Blue, pSTAT3-Alexa Fluor 488 and pSTAT5-Phycoerythrin. The stained cells were washed twice with ice cold PBS containing 2% BSA and centrifuged at 800 g for 6 minutes at 4° C. The supernatant was discarded and cells re-suspended in 250 μL of chilled wash buffer for data acquisition. Stained cells were examined using either GALIOS flow cytometer (Beckman Coulter) or CYAN ADP (Beckman Coulter) equipped with 488 nm, 405 nm and 635 nm lasers to detect the degree of fluorescence. Data were analyzed using FCS Express (De Novo Software, CA) analysis software.\n(§3) Specific phosphoprotein expression of pERK, pS6, pAKT, pSTAT5, and pSTAT3 was examined in seven discrete phenotypically defined populations based on 7-color immunophenotyping (FIG. 1). The percent of responding (phosphorprotein positive) cells for each of these populations was determined from individual single parameter histograms based on a fixed integration region set on the inhibitor treated control at about 3% positives."}, "[2]": {"test_system": "pERK", "conditions": "for pERK Percent (%) Responding Cells, Mean / pERK S/N ratio: healthy donor BM, mean ± SD", "procedure": "as §1, §2, §3"}, "[3]": {"test_system": "pS6", "conditions": "for pS6 Percent (%) Responding Cells, Mean / pS6 S/N ratio: healthy donor BM, mean ± SD", "procedure": "as §1, §2, §3"}, "[4]": {"test_system": "pSTAT3", "conditions": "healthy donor BM, mean ± SD", "procedure": "as §1, §2, §3"}, "[5]": {"test_system": "pSTAT5", "conditions": "healthy donor BM, mean ± SD", "procedure": "as §1, §2, §3"}}, "note": "Values joined by “and” are separate entries in the source; they are usually repeats but may differ in a detail not shown here. Equal values may be shown once."}
{"substance": "Stem Cell Factor [SCF]", "values": [{"measurement": "pAKT Percent (%) Responding Cells, Mean", "setting": "[1]; CD34^+ (CD34^+/CD117^+ cells)", "result": "58.0% and 58.0 ± 27.3%"}, {"measurement": "pAKT S/N ratio", "setting": "[1]; CD34^+ (CD34^+/CD117^+ cells)", "result": "7.5 and 7.5 ± 5.7"}, {"measurement": "pAKT Percent (%) Responding Cells, Mean", "setting": "[1]; CD117^+ (CD34^−/CD117^+ cells)", "result": "60.6% and 60.6 ± 33.5%"}, {"measurement": "pAKT S/N ratio", "setting": "[1]; CD117^+ (CD34^−/CD117^+ cells)", "result": "7.3 ± 5.4"}, {"measurement": "pAKT Percent (%) Responding Cells, Mean", "setting": "[1]; G1, immature myeloid cells", "result": "2.9 ± 2.4", "unit": "%"}, {"measurement": "pAKT S/N ratio", "setting": "[1]; G1, immature myeloid cells", "result": "2.2 ± 1.1"}, {"measurement": "pAKT Percent (%) Responding Cells, Mean", "setting": "[1]; G2, intermediate myeloid cells", "result": "3.9 ± 3.9", "unit": "%"}, {"measurement": "pAKT S/N ratio", "setting": "[1]; G2, intermediate myeloid cells", "result": "2.3 ± 1.0"}, {"measurement": "pAKT Percent (%) Responding Cells, Mean", "setting": "[1]; G3, mature myeloid cells", "result": "4.2 ± 3.0", "unit": "%"}, {"measurement": "pAKT S/N ratio", "setting": "[1]; G3, mature myeloid cells", "result": "2.6 ± 1.2"}, {"measurement": "pAKT Percent (%) Responding Cells, Mean", "setting": "[1]; Mono, monocytes", "result": "6.5 ± 8.2", "unit": "%"}, {"measurement": "pAKT S/N ratio", "setting": "[1]; Mono, monocytes", "result": "2.4 ± 1.0"}, {"measurement": "pAKT, Normal Sample", "setting": "[1]; Table 7 comparison value", "result": 58.0}, {"measurement": "pERK Percent (%) Responding Cells, Mean", "setting": "[2]; CD34^+ (CD34^+/CD117^+ cells)", "result": "89.8% and 89.8 ± 6.9%"}, {"measurement": "pERK S/N ratio", "setting": "[2]; CD34^+ (CD34^+/CD117^+ cells)", "result": "13.3 and 13.3 ± 4.9"}, {"measurement": "pERK Percent (%) Responding Cells, Mean", "setting": "[2]; CD117^+ (CD34^−/CD117^+ cells)", "result": "67.7% and 67.7 ± 20.1%"}, {"measurement": "pERK S/N ratio", "setting": "[2]; CD117^+ (CD34^−/CD117^+ cells)", "result": "8.6 ± 3.2"}, {"measurement": "pERK Percent (%) Responding Cells, Mean", "setting": "[2]; G1, immature myeloid cells", "result": "1.6 ± 0.8", "unit": "%"}, {"measurement": "pERK S/N ratio", "setting": "[2]; G1, immature myeloid cells", "result": "2.9 ± 0.6"}, {"measurement": "pERK Percent (%) Responding Cells, Mean", "setting": "[2]; G2, intermediate myeloid cells", "result": "2.8 ± 2.1", "unit": "%"}, {"measurement": "pERK S/N ratio", "setting": "[2]; G2, intermediate myeloid cells", "result": "2.7 ± 0.5"}, {"measurement": "pERK Percent (%) Responding Cells, Mean", "setting": "[2]; G3, mature myeloid cells", "result": "6.5 ± 7.2", "unit": "%"}, {"measurement": "pERK S/N ratio", "setting": "[2]; G3, mature myeloid cells", "result": "3.1 ± 0.6"}, {"measurement": "pERK Percent (%) Responding Cells, Mean", "setting": "[2]; Mono, monocytes", "result": "13.6 ± 3.6", "unit": "%"}, {"measurement": "pERK S/N ratio", "setting": "[2]; Mono, monocytes", "result": "3.2 ± 2.1"}, {"measurement": "pERK, Normal Sample (first AML5 line)", "setting": "[2]; Table 7 comparison value, matches S/N ratio of Table 1", "result": 13.3}, {"measurement": "pERK, Normal Sample", "setting": "[2]; Table 7 comparison value, matches percent responding CD34^+ cells of Tables 1-5", "result": 89.8}, {"measurement": "pS6 Percent (%) Responding Cells, Mean", "setting": "[3]; CD34^+ (CD34^+/CD117^+ cells)", "result": "81.7% and 81.7 ± 16.3%"}, {"measurement": "pS6 S/N ratio", "setting": "[3]; CD34^+ (CD34^+/CD117^+ cells)", "result": "48.4 and 48.4 ± 39.3"}, {"measurement": "pS6 fraction positive responding", "setting": "[3]; CD34^−CD117^+ cells, normal BM, non-homogeneous response", "result": 53.8, "unit": "%"}, {"measurement": "pS6 Percent (%) Responding Cells, Mean", "setting": "[3]; CD117^+ (CD34^−/CD117^+ cells)", "result": "51.9% and 51.9 ± 16.9%"}, {"measurement": "pS6 S/N ratio", "setting": "[3]; CD117^+ (CD34^−/CD117^+ cells)", "result": "108.2 ± 94.9"}, {"measurement": "pS6 Percent (%) Responding Cells, Mean", "setting": "[3]; G1, immature myeloid cells", "result": "2.1 ± 1.4", "unit": "%"}, {"measurement": "pS6 S/N ratio", "setting": "[3]; G1, immature myeloid cells", "result": "3.3 ± 1.9"}, {"measurement": "pS6 Percent (%) Responding Cells, Mean", "setting": "[3]; G2, intermediate myeloid cells", "result": "2.1 ± 1.2", "unit": "%"}, {"measurement": "pS6 S/N ratio", "setting": "[3]; G2, intermediate myeloid cells", "result": "2.9 ± 1.8"}, {"measurement": "pS6 Percent (%) Responding Cells, Mean", "setting": "[3]; G3, mature myeloid cells", "result": "3.8 ± 2.6", "unit": "%"}, {"measurement": "pS6 S/N ratio", "setting": "[3]; G3, mature myeloid cells", "result": "3.5 ± 2.3"}, {"measurement": "pS6 Percent (%) Responding Cells, Mean", "setting": "[3]; Mono, monocytes", "result": "43.5 ± 19.9", "unit": "%"}, {"measurement": "pS6 S/N ratio", "setting": "[3]; Mono, monocytes", "result": "11.2 ± 12.3"}, {"measurement": "pSTAT3 Percent (%) Responding Cells, Mean", "setting": "[4]; CD34^+ (CD34^+/CD117^+ cells)", "result": "7.3 ± 4.3", "unit": "%"}, {"measurement": "pSTAT3 S/N ratio", "setting": "[4]; CD34^+ (CD34^+/CD117^+ cells)", "result": "1.9 ± 0.2"}, {"measurement": "pSTAT3 Percent (%) Responding Cells, Mean", "setting": "[4]; CD117^+ (CD34^−/CD117^+ cells)", "result": "2.6 ± 1.4", "unit": "%"}, {"measurement": "pSTAT3 S/N ratio", "setting": "[4]; CD117^+ (CD34^−/CD117^+ cells)", "result": "2.5 ± 0.6"}, {"measurement": "pSTAT3 Percent (%) Responding Cells, Mean", "setting": "[4]; G1, immature myeloid cells", "result": "3.0 ± 3.5", "unit": "%"}, {"measurement": "pSTAT3 S/N ratio", "setting": "[4]; G1, immature myeloid cells", "result": "3.3 ± 0.5"}, {"measurement": "pSTAT3 Percent (%) Responding Cells, Mean", "setting": "[4]; G2, intermediate myeloid cells", "result": "2.2 ± 1.8", "unit": "%"}, {"measurement": "pSTAT3 S/N ratio", "setting": "[4]; G2, intermediate myeloid cells", "result": "3.3 ± 0.5"}, {"measurement": "pSTAT3 Percent (%) Responding Cells, Mean", "setting": "[4]; G3, mature myeloid cells", "result": "4.7 ± 4.0", "unit": "%"}, {"measurement": "pSTAT3 S/N ratio", "setting": "[4]; G3, mature myeloid cells", "result": "3.6 ± 0.6"}, {"measurement": "pSTAT3 Percent (%) Responding Cells, Mean", "setting": "[4]; Mono, monocytes", "result": "4.4 ± 2.0", "unit": "%"}, {"measurement": "pSTAT3 S/N ratio", "setting": "[4]; Mono, monocytes", "result": "2.4 ± 0.3"}, {"measurement": "pSTAT5 Percent (%) Responding Cells, Mean", "setting": "[5]; CD34^+ (CD34^+/CD117^+ cells)", "result": "11.6 ± 3.0", "unit": "%"}, {"measurement": "pSTAT5 S/N ratio", "setting": "[5]; CD34^+ (CD34^+/CD117^+ cells)", "result": "1.5 ± 0.9"}, {"measurement": "pSTAT5 Percent (%) Responding Cells, Mean", "setting": "[5]; CD117^+ (CD34^−/CD117^+ cells)", "result": "7.4 ± 4.7", "unit": "%"}, {"measurement": "pSTAT5 S/N ratio", "setting": "[5]; CD117^+ (CD34^−/CD117^+ cells)", "result": "2.2 ± 0.7"}, {"measurement": "pSTAT5 Percent (%) Responding Cells, Mean", "setting": "[5]; G1, immature myeloid cells", "result": "6.8 ± 8.0", "unit": "%"}, {"measurement": "pSTAT5 S/N ratio", "setting": "[5]; G1, immature myeloid cells", "result": "3.1 ± 0.7"}, {"measurement": "pSTAT5 Percent (%) Responding Cells, Mean", "setting": "[5]; G2, intermediate myeloid cells", "result": "4.9 ± 5.6", "unit": "%"}, {"measurement": "pSTAT5 S/N ratio", "setting": "[5]; G2, intermediate myeloid cells", "result": "3.2 ± 0.7"}, {"measurement": "pSTAT5 Percent (%) Responding Cells, Mean", "setting": "[5]; G3, mature myeloid cells", "result": "6.9 ± 6.7", "unit": "%"}, {"measurement": "pSTAT5 S/N ratio", "setting": "[5]; G3, mature myeloid cells", "result": "3.8 ± 0.8"}, {"measurement": "pSTAT5 Percent (%) Responding Cells, Mean", "setting": "[5]; Mono, monocytes", "result": "9.5 ± 13.8", "unit": "%"}, {"measurement": "pSTAT5 S/N ratio", "setting": "[5]; Mono, monocytes", "result": "2.5 ± 0.6"}]}
